In patent US7833795B2, “Assessment of cardiovascular risk using isoprostane biomarkers and COX-2 selective inhibitors” (The Trustees of the University of Pennsylvania, priority 2004, dated 2010):

Columns and labels:
Male Fisher 344 rats [1] = assay: Plasma lipid hydroperoxides (iodometric assay) after CCl4; format: in vivo, rat
Description: (§1) Animals and treatment protocol: Male Fisher 344 rats (260-280 g) obtained from Charles River Laboratories (Raleigh, N.C.) were used in all experiments. The animals were housed three to a cage. Autoclaved hardwood bedding was used in solid-bottom polycarbonate cages with filter tops. Animal rooms were maintained at 20-25° C. with 35-70% relative humidity with alternating 12-hour light and dark cycles. The rats had free access to deionized, reverse-osmosis-treated water and received autoclaved NIH 31 rodent chow (Zeigler Bros., Gardners, Pa.) ad libitum. For all experiments, rats were fasted overnight and then administered intraperitoneal injections of carbon tetrachloride in canola oil. Control rats received an equal volume of canola oil. Fasting continued throughout the experiment. Rats were anesthetized with Nembutal (0.1 ml/100 g body weight) and 5 ml blood was removed from the dorsal aorta proximal to its bifurcation into the common iliac arteries.
(§2) Carbon tetrachloride (CCL4) treatment: Animals from each of the three dose groups (Control-canola oil, 120 mg/kg CCl4 i.p. and 1200 mg/kg CCl4 i.p.) were investigated at three time points (2, 7, and 16 hours after CCl4 injection). Indomethacin-pretreated rats were also investigated at the same three time points, and the meclofenamic acid-pretreated rats were investigated at one time point (7 hours). Each group consisted of five rats for each analysis, except the meclofenamic acid pretreatment group which consisted of six rats. Animal treatment, sample preparation, assessment of liver histology and serum enzyme activities are described elsewhere (Kadiiska et al., 2000, Free Radic. Biol. Med. 28: 838-845; Jackson, 1989, J. Pharmacol. Exp. Ther. 250: 9-21) and were carried out at NIEHS, Research Triangle Park, N.C.
(§3) Plasma sample preparation: Blood (5 ml) was drawn through single draw Vacutainer® needles (21 Gauge) into open Vacutainer® blood collection tubes containing heparin. The tubes were gently inverted 2-3 times for mixing and immediately placed on ice. Blood was centrifuged (2,000 rpm for 10 minutes at 4° C.) no more than 30 minutes after collection, and the plasma was collected, frozen on dry ice and stored at −70° C.
The second assay of plasma lipid hydroperoxides used iodometric spectrophotometric determination. Concentrations of lipid hydroperoxides were measured according to a slightly modified procedure of Cramer et al. (1991, Anal. Biochem. 193: 204-211) where plasma was treated to enzymatically hydrolyze lipids, and nonesterified fatty acid peroxides were then extracted with ethyl acetate. Extracted lipids were reacted with potassium iodide in citric acid and methylene chloride, and the resulting triiodide ion (I3^−) was measured spectrophotometrically. All measurements were done at the United States Environmental Protection Agency (EPA), Research Triangle Park, N.C.

Male Fisher 344 rats [2] = assay: Plasma protein carbonyls; format: in vivo, rat
Description: as §1, §2, §3
Several different assays for oxidation products of proteins were employed. The protein carbonyl content (Agarwal and Sohal, 1995, Mech. Ageing Develop. 85: 55-63), indicative of plasma protein oxidative damage, was measured according to the method of Levine et al. (Levine et al., 1994, Meth. Enzymol. 233: 346-357), based on derivatization of carbonyls with tritiated borohydride, as described in detail by Yan and Sohal (2000, Current Protocols Protein Science 144: 105-128). The isolated protein was counted in a Beckman scintillation counter and calculated using a standard curve. The measurements were performed at the University of Southern California, Los Angeles.

Male Fisher 344 rats [3] = assay: Urinary free plus esterified 8-iso-PGF2α by immunoassay; format: in vivo, rat; conditions: for Free plus esterified 8-iso PGF2a (by immunoassay): urine
Description: as §1
Indomethacin pretreatment: The indomethacin regimen used has been previously shown to inhibit COX activity in rats by 90% (dose of 5 mg/kg s.c. 24 hours, 12 hours, and 2 hours prior to the injection of CCl4) (Jackson, 1989, J. Pharmacol. Exp. Ther. 250: 9-21). An additional booster dose was injected 8 hours after the last injection of CCl4 for the measurements performed 16 hours after treatment with CCl4.
Meclofenamic acid pretreatment: Meclofenamic acid was injected at a dose of 5 mg/kg i.p. 12 h and 2 h prior to the injection of CCl4.
as §2
Urine sample preparation: The day prior to treatment, both experimental and control animals were placed in stainless steel metabolic cages especially designed for urine collection. For Experimental Example 2, animals were placed in metabolic cages immediately after the last injection of indomethacin or meclofenamic acid. Urine was collected (in dark vials) from the animals during the following intervals: 2 to 7 hours and 7 to 16 hours after CCl4 or canola oil (controls) treatment. Urine samples from indomethacin-pretreated rats were collected from 2 to 7 hours and 7 to 16 hours after the injection of CCl4, whereas samples from meclofenamic-acid-pretreated rats were collected only from 2 to 7 hours after the injection. All urine samples were immediately frozen on dry ice and stored at −70° C.
Urinary 8-iso-PGF2α concentrations were measured by the competitive immunoassay procedure in which 8-iso-PGF2α conjugated to alkaline phosphatase competed with the test analyte for antibody specific for the isoprostane. The anti-8-iso-PGF2α antibody was captured by anti-Fc antibodies immobilized on a microtiter plate. The assay was developed by Assay Designs, Inc., Ann Arbor, Mich. and performed at OXIS Research, Portland, Oreg.
In an additional method not recited in Example 1, an immunoassay was used to measure the sum of free plus esterified 8-iso-PGF2α. The immunoassay used anti-8-iso-PGF2α antibody was developed by Assay Designs, Inc., Ann Arbor, Mich., and performed at Oxis Research, Portland, Oreg.

Male Fisher 344 rats [4] = conditions: cited from earlier work

ClC(Cl)(Cl)Cl [CCl4, Carbon tetrachloride]
LOOH (iodometric assay) (Male Fisher 344 rats [1]; CCl4 120 mg/kg i.p., 2 h): 0.30 µM
LOOH (iodometric assay) (Male Fisher 344 rats [1]; CCl4 120 mg/kg i.p., 7 h): 0.30 µM
LOOH (iodometric assay) (Male Fisher 344 rats [1]; CCl4 120 mg/kg i.p., 16 h): 0.56 µM
LOOH (iodometric assay) (Male Fisher 344 rats [1]; CCl4 1200 mg/kg i.p., 2 h): 1.42 µM
LOOH (iodometric assay) (Male Fisher 344 rats [1]; CCl4 1200 mg/kg i.p., 7 h): 0.40 µM
LOOH (iodometric assay) (Male Fisher 344 rats [1]; CCl4 1200 mg/kg i.p., 16 h): 0.39 µM
Protein carbonyls (by HPLC) (Male Fisher 344 rats [2]; CCl4 120 mg/kg i.p., 2 h): 0.40 nmol/mg protein
Protein carbonyls (by HPLC) (Male Fisher 344 rats [2]; CCl4 120 mg/kg i.p., 7 h): 0.42 nmol/mg protein
Protein carbonyls (by HPLC) (Male Fisher 344 rats [2]; CCl4 120 mg/kg i.p., 16 h): 0.51 nmol/mg protein
Protein carbonyls (by HPLC) (Male Fisher 344 rats [2]; CCl4 1200 mg/kg i.p., 2 h): 0.53 nmol/mg protein
Protein carbonyls (by HPLC) (Male Fisher 344 rats [2]; CCl4 1200 mg/kg i.p., 7 h): 0.59 nmol/mg protein
Protein carbonyls (by HPLC) (Male Fisher 344 rats [2]; CCl4 1200 mg/kg i.p., 16 h): 0.48 nmol/mg protein
Free plus esterified 8-iso PGF2a (by immunoassay) (Male Fisher 344 rats [3]; CCl4 120 mg/kg i.p., 7 h): 25.7 ng/mgcreatinine
Free plus esterified 8-iso PGF2a (by immunoassay) (Male Fisher 344 rats [3]; CCl4 120 mg/kg i.p., 16 h): 17.4 ng/mgcreatinine
Free plus esterified 8-iso PGF2a (by immunoassay) (Male Fisher 344 rats [3]; CCl4 1200 mg/kg i.p., 7 h): 57.0 ng/mgcreatinine
Free plus esterified 8-iso PGF2a (by immunoassay) (Male Fisher 344 rats [3]; CCl4 1200 mg/kg i.p., 16 h): 30.4 ng/mgcreatinine
increase of urinary 8-iso-PGF2α (immunoassay) (Male Fisher 344 rats [3]; high dose CCl4, 7 h): 10 fold
increase of urinary 8-iso-PGF2α (immunoassay) (Male Fisher 344 rats [3]; high dose CCl4, 16 h): 6 fold
serum liver enzyme activities (Male Fisher 344 rats [4]; CCl4 120 and 1200 mg/kg, 2, 7, 16 h): significant increase in many of the enzyme activities studied was observed at the high dose at 2 hours and for both doses at 7 and 16 hours
hepatic effects, histology (Male Fisher 344 rats [4]; both doses of CCl4, each time point): diffuse hepatocyte degeneration and infiltration of inflammatory cells associated with necrosis
